pIC50, pKd: −log10 of the molar value. Read-outs that look alike come from different tables or passages of the source.
Assays:
[1] = target: T1, LSD1 (Homo sapiens, UniProt O60341); test: LSD1 enzymatic assay; assay type: biochemical; details: for IC50: read-out: IC50 (μM) against LSD1; for Bottom / Hillslope / Top: concentration-response curve fit parameter;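 for Bottom: percent inhibition of LSD1 activity from the fitted dose-response curve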;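 for Top: percent inhibition of LSD1 activity from the fitted dose-response curve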
Method: A total of 12 compounds were purchased from J&K Scientific Ltd. (Shanghai, China). The biological experiments of inhibiting the enzymatic activity of LSD1 by 12 test compounds were conducted by Pharmaron (Beijing, China). Each compound was serially diluted 4-fold in 100% dimethyl sulfoxide (DMSO) from a starting DMSO stock concentration of 20 mM to obtain 10 concentration doses. Seclidemstat was used as a positive control. The diluted compounds were added to the LSD1 assay buffer (50 mM Tris-HCl, pH 7.5, and 1% DMSO) and incubated with LSD1 for 30 min at room temperature. The peptide substrate was then added to initiate the reaction, and the mixture was further incubated for 60 min at room temperature. The reaction was stopped by adding the stop solution, followed by the addition of the detection solution containing protein-A-Eu, streptavidin-d2, and anti-Histone H3 (dimethyl K9) antibody. […] The IC50 was calculated using a nonlinear regression (dose response – variable slope) by fitting the inhibition ratio and log of compound concentrations using Graphpad 8.0.

[2] = test system: EGFR-mutant NSCLC cells; parameters: method as in Hu et al. [61]; details: ref Hu et al. [61]; cited from earlier work
[3] = test system: EGFR wild-type cells; parameters: method as in Hu et al. [61]; details: ref Hu et al. [61]; cited from earlier work
[4] = Body weight of H1975 xenograft nude mice; assay type: in vivo; details: 75 and 150 mg/kg i.p. every two days
Method: (§1) Nude mice (nu/nu, female, 4–6-week-old) were purchased from Charles River (Beijing, China) and subcutaneously injected with 2 × 10^6 H1975 cells harboring on the right flank. Tumor growth was recorded by measurement of two perpendicular diameters using the equation: π/6 × length × width^2. To explore the effect of L-1 on tumorigenicity in lung cancer, when tumor volumes reached approximately 50 mm^3, mice received either vehicle control, L-1 (75 mg/kg) and L-1 (150 mg/kg), and they were administered every two days by i.p. injection. The mice were sacrificed, and the tumors were excised, imaged and weighed after inhibitor treatments. Statistical analyses have been done by comparison in relation to the control group with a two-tailed unpaired Student’s t test. The animal experiments were performed according to the institutional ethical guidelines approved by the Laboratory Animal Ethics Committee Nankai University.

[5] = target: T1, LSD1; test: SPR binding assay (Biacore T200)
Method: Surface plasmon resonance (SPR) was employed to evaluate direct binding between compounds and LSD1 using Biacore T200 optical biosensor (Biacore Life Sciences, GE Healthcare). LSD1 was covalently attached to CM5 sensor chip via amine coupling. Binding experiments were conducted at 15 °C in a buffer containing 10 mM HEPES (pH 7.4), 150 mM NaCl, 1% DMSO, and 0.05% Tween, with a flow rate of 30 μL/min. Compounds were serially diluted in the same buffer and injected over the prepared surfaces for 15–25 s at increasing concentrations. Sensorgrams were corrected by subtracting signals from both an untreated reference channel and blank injections. Data analysis was performed using Biacore T200 evaluation software (GE Healthcare).

[6] = test system: H1975 cells (with EGFR mutant); test: Cell proliferation assay (cell number counting), H1975; assay type: cell-based
Method: (§2) Lung cancer H460, H1299, PC9, and H1975 cells were purchased from Procell (Wuhan, China) and cultured in RPMI-1640 medium (Thermo Fisher Scientific, MA, USA) supplemented with 10% fetal bovine serum (FBS, ExCell Bio, Shanghai, China). For cell proliferation assay, the cells were seeded in a 24-well plate (0.5 × 10^4 cells/well), then treated with L-1 with increasing concentrations (0, 2.5, 5, 10, 20, 40 μM) or vehicle alone. Cell numbers were counted using try-pan blue exclusion on the fourth day.

[7] = test system: BaF3 cells stably expressing EGFR (L858R/T790M/C797S); test: BaF3 cell assay (CTG luminescence); details: Mus musculus, BaF3, read-out: BaF3 cell assay IC50 (μM) L858R/T790M/C797S
[8] = target: triple-mutant EGFR (L858R/T790M/C797S) (Homo sapiens, UniProt P00533, C797S/L858R/T790M); test: EGFR kinase assay (HTRF), triple mutant; assay type: biochemical; details: for IC50: read-out: EGFR kinase assay IC50 (μM) L858R/T790M/C797S
Sequence of triple-mutant EGFR (L858R/T790M/C797S) (P00533 25-1210 T790M/C797S/L858R): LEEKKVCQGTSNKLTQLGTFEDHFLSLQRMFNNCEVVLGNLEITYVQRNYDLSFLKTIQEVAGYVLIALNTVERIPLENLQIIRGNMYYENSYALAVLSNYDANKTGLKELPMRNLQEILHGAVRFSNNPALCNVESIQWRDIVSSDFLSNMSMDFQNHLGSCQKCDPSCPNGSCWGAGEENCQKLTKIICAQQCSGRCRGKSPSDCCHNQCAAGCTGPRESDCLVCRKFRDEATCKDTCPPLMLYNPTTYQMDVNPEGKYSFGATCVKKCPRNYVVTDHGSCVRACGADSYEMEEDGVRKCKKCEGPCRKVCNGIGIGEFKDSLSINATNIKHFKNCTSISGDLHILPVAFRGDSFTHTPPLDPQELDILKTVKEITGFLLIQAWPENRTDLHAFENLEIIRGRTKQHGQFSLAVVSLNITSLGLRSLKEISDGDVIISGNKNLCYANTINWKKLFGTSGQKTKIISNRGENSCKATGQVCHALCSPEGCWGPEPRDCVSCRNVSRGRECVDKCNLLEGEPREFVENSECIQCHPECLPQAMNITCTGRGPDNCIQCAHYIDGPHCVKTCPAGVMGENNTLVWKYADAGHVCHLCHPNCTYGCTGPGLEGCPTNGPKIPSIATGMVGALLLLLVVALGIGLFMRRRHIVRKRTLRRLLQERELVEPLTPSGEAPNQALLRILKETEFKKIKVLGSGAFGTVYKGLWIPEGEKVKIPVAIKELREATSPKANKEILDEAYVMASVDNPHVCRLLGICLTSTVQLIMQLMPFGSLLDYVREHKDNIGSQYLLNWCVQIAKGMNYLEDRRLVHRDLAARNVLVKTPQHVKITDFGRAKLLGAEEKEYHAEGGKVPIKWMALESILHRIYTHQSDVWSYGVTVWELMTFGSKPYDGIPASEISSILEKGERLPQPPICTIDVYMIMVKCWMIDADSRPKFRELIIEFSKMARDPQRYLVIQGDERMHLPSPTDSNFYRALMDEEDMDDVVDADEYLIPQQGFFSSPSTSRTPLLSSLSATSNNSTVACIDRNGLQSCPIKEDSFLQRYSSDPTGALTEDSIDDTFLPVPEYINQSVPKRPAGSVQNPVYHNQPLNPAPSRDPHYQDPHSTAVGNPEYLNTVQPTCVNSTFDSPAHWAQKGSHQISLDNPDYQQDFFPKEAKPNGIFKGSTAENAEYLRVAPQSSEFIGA
Method: (§3) The biological experiments of inhibiting the activity of EGFR by test compounds were also performed by Pharmaron (Beijing). To conduct the kinase assay, the following steps were followed:
(§4) % Inhibition is calculated as follow: %Inhibition=1−SINGALcmpd−SINGALave−pc/SINGALave−vc−SINGALave−pc×100
(§5) SINGALcmpd = singal for compound being tested
(§6) SINGALave_pc = singal for positive controls
(§7) SINGALave_vc = singal for vehicle controls

[9] = test system: Ki67; test: Ki67 immunohistochemical staining of CDX tumors; assay type: in vivo, nude mice; details: CDX tumor, L-1 treatment group
Method: Immunohistochemistry was performed on paraffin-embedded sections. Tissue sections were dewaxed and rehydrated using standard protocol. Antigen retrieval was performed by boiling samples in citrate buffer for 45 min. Endogenous peroxidase activity was inhibited by using 3% hydrogen peroxidase. Sections were blocked in 3% BSA in PBS and incubated in primary antibody (Ki67, CST, MA, USA) overnight at 4 °C. Then the secondary antibody (Goat anti-rabbit IgG (H + L) HRP, Bioworld, OH, USA) was incubated at room temperature for 1.5 h and developed using DAB. Sections were counterstained with hematoxylin.

[10] = test system: H460 cells (with EGFR wild type); test: Cell proliferation assay (cell number counting), H460; assay type: cell-based; details: 0-40 μM, counted on the fourth day
Method: as §2

[11] = test system: H1975 cells-derived xenograft (CDX); test: H1975 cell-derived xenograft (CDX) mouse model, tumor formation; assay type: in vivo, nude mice; details: 75 and 150 mg/kg i.p. every two days, compared to control group
Method: as §1

[12] = test system: LSD1/EGFR relevant downstream signaling pathways; test: Western blot of signaling pathway proteins in the H1975 CDX model; assay type: in vivo, nude mice
Method: Cells were lysed with lysis buffer (1.5 M NaCl, 1 M Hepes, 20% NP40, 0.1 M Na pyrophosphate, 0.1 M NaF, 0.1 M Na3VO4, 0.2 M glycerol phosphate) on ice for 30 min and then centrifuged at 12,000 r/min for 15 min at 4 °C. Protein samples were loaded into 12% SDS-PAGE, then separated by running for different voltage, and transferred onto PVDF membranes (Millipore, MA, USA). The membranes were blocked with 5% non-fat milk for 2 h and then incubated overnight at 4 °C or at room temperature for 2 h with the primary antibody and 1 h at room temperature with secondary antibody. Signals were detected using Luminol substrate solution (Millipore, MA, USA).

[13] = test system: PC9 cells (with EGFR mutant); test: Cell proliferation assay (cell number counting), PC9; assay type: cell-based
Method: as §2

[14] = test system: H1299 cells (with EGFR wild type); test: Cell proliferation assay (cell number counting), H1299; assay type: cell-based; details: 0-40 μM, counted on the fourth day
Method: as §2

[15] = test system: BaF3 cells harboring EGFR L858R/T790M/C797S mutant; parameters: method as in PMID 30429956; details: read-out: IC50 BaF3 cells harboring EGFR L858R/T790M/C797S, previous studies; cited from earlier work
[16] = target: double-mutant EGFR (T790M/L858R) (Homo sapiens, UniProt P00533, L858R/T790M); test: EGFR kinase assay (HTRF), double mutant; assay type: biochemical
Sequence of double-mutant EGFR (T790M/L858R) (P00533 25-1210 T790M/L858R): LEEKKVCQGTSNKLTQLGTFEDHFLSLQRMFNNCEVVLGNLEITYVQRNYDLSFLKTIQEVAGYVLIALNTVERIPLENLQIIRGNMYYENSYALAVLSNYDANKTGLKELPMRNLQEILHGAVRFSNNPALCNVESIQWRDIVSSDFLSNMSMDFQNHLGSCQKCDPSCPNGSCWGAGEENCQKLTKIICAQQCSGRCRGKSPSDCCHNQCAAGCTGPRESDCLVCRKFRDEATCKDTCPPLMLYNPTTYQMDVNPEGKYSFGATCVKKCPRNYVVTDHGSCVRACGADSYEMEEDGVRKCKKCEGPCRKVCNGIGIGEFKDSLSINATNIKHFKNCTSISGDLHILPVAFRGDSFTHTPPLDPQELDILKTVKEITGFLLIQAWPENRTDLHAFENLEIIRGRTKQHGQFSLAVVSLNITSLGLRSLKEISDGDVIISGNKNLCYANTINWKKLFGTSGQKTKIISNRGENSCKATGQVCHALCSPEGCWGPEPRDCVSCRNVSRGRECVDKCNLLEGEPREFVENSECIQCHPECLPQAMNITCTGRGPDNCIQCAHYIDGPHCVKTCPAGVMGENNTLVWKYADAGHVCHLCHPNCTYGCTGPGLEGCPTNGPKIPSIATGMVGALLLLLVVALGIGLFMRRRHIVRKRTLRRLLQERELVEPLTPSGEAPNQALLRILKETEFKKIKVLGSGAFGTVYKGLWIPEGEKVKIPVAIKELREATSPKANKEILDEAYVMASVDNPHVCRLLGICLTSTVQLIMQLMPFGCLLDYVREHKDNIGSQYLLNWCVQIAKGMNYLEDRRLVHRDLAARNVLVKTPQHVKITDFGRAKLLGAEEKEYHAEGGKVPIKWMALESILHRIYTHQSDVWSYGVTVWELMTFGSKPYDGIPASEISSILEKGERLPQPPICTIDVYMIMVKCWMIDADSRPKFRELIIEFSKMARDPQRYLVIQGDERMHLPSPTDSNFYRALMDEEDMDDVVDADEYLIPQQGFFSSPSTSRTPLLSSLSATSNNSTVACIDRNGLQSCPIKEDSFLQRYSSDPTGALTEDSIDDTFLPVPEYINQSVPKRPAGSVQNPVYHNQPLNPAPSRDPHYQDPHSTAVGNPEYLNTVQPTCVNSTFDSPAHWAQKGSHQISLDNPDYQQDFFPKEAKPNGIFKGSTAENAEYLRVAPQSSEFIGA
Method: as §3, §4, §5, §6, §7

[17] = 0-40 μM, counted on the fourth day
[18] = LSD1 knockdown compared to control cells

Row | SMILES | IC50 [1] [µM] | Relative potency % [1] [%] | Bottom [1] | Top [1] | other results
1 | CCN(CC)c1ccc(/C=C2/C(=O)NC(=O)N(c3ccc(Cl)cc3)C2=O)c(OC)c1 [D-2] | – | – | – | – | pIC50 [1]: < 4.00
2 | COC(=O)c1sccc1NC(=O)Cn1cc(-c2nc(-c3ccc(C)cc3)no2)ccc1=O [D-15] | > 100 | – | – | – | –
3 | CC(C)c1noc(-c2ccc(=O)n(CC(=O)Nc3ccccc3Br)c2)n1 [D-18] | > 100 | – | – | – | –
4 | Cc1ccc(-c2noc(-c3cccn(CC(=O)Nc4ccccc4Br)c3=O)n2)cc1 [D-4] | 29.2 | 0.5 | 5.79 | 60.26 | Hillslope [1]: 4.05
5 | Cc1ccc(-c2noc(-c3ccc(=O)n(CC(=O)Nc4cccc(Br)c4)c3)n2)cc1 [D-8] | > 100 | – | – | – | –
6 | Cc1ccc(-c2noc(-c3ccc(=O)n(CC(=O)Nc4ccc(Br)cc4)c3)n2)cc1 [D-9] | 26.6 | 0.5 | 3.84 | 52.57 | –
7 | C=CC(=O)Nc1cc(Nc2nccc(-c3cn(C)c4ccccc34)n2)c(OC)cc1N(C)CCN(C)C [Osimertinib] | – | – | – | – | effect on EGFR-mutant cells [2]: significant inhibitory effect; effect on EGFR wild-type cells [3]: less pronounced impact
8 | Cc1ccc(-c2noc(-c3ccc(=O)n(CC(=O)Nc4ccc(C)cc4Br)c3)n2)cc1 [D-11] | > 100 | – | – | – | –
9 | COc1cc(Cl)c(C)cc1NC(=O)Cn1cc(-c2nc(-c3ccc(C)cc3)no2)ccc1=O [D-12] | > 100 | – | – | – | –
10 | CCN(CC)c1ccc(/C=C2/C(=O)NC(=O)N(c3ccc(Cl)cc3)C2=O)c(O)c1 [L-1] | – | 3.7 | −4.65 | 51.52 | body weight of nude mice [4]: did not affect; Binding to LSD1 by SPR (in words) [5]: specific and reversible binding; pKd [5]: 4.74; cell proliferation, H1975 [6, 17]: significantly inhibited; efficacy after LSD1 knockdown, H1975 [6, 18]: less effective; IC50 [7]: 5.58 µM; pIC50 [8]: 5.30; level of Ki67 (IHC) [9]: significantly suppressed; cell proliferation, H460 [10]: not have effect; tumor growth rate [11]: slower growth rate; tumor size [11]: smaller tumor size; tumor weight [11]: lighter tumor weight; LSD1/EGFR relevant downstream signaling pathways (Western blot) [12]: could inhibit; pIC50 [1]: 5.20; Hillslope [1]: 1.26; cell proliferation, PC9 [13, 17]: significantly inhibited; efficacy after LSD1 knockdown, PC9 [13, 18]: less effective; cell proliferation, H1299 [14]: not have effect
11 | Cc1noc(-c2ccc(=O)n(CC(=O)Nc3ccccc3Br)c2)n1 [D-16] | 28.7 | 0.5 | −2.33 | 51.97 | IC50 [7]: 2.72 µM; IC50 [8]: 59.6 µM
12 | COc1ccccc1NC(=O)Cn1cc(-c2nc(-c3ccc(C)cc3)no2)ccc1=O [D-5] | 21.5 | 0.7 | 7.19 | 54.06 | Hillslope [1]: 2.04
13 | CCOc1ccccc1NC(=O)Cn1cc(-c2nc(-c3ccc(C)cc3)no2)ccc1=O [D-6] | > 100 | – | – | – | –
14 | COc1cc(N2CCC(N3CCN(C)CC3)CC2)ccc1Nc1ncc(Cl)c(Nc2ccccc2P(C)(C)=O)n1 [Brigatinib, reference compound] | – | – | – | – | IC50 [7]: 0.4 µM; pIC50 [15]: 6.38
15 | Cc1ccc(-c2noc(-c3ccc(=O)n(CC(=O)Nc4ccccc4Br)c3)n2)cc1 [L-6] | 9.26 | 2.5 | −11.46 | 55.47 | Binding to LSD1 by SPR (in words) [5]: specific and reversible binding; pKd ([5]; SPR, 15 °C, read-out: dissociation constant (KD)): 4.58; IC50 [7]: 8.99 µM; IC50 [8]: 28.5 µM; IC50 [16]: 26.5 µM; Hillslope [1]: 1.86
16 | CCCc1noc(-c2ccc(=O)n(CC(=O)Nc3ccccc3Br)c2)n1 [D-17] | 19.8 | 0.8 | −0.07 | 64.23 | IC50 [8]: > 100 µM; IC50 [16]: > 100 µM
17 | CCN(CC)c1ccc(/C=C2/C(=O)NC(=O)N(c3ccc(C(F)(F)F)cc3)C2=O)c(O)c1 [D-3] | – | 0.4 | 8.10 | 45.78 | pIC50 [1]: 4.45
18 | CCCCNC(=O)Cn1cc(-c2nc(-c3ccc(C)cc3)no2)ccc1=O [D-13] | > 100 | – | – | – | –
19 | Cc1ccc(-c2noc(-c3ccc(=O)n(CC(=O)NCc4ccccc4)c3)n2)cc1 [D-14] | 28.3 | 0.5 | −1.64 | 48.09 | IC50 [7]: 2.45 µM; IC50 [8]: 86.7 µM; IC50 [16]: 73.9 µM; Hillslope [1]: 2.53
20 | COC(=O)c1ccccc1NC(=O)Cn1cc(-c2nc(-c3ccc(C)cc3)no2)ccc1=O [D-7] | > 100 | – | – | – | –
21 | Cc1ccc(-c2noc(-c3ccc(=O)n(CC(=O)Nc4ccccc4C(F)(F)F)c3)n2)cc1 [D-10] | 34.3 | 0.4 | 2.43 | 42.68 | –
22 | CCN(CC)c1ccc(/C=C2/C(=O)NC(=O)N(c3ccc(Cl)cc3)C2=O)cc1 [D-1] | – | – | – | – | pIC50 [1]: < 4.00
23 | C/C(=N\NC(=O)c1cccc(S(=O)(=O)N2CCN(C)CC2)c1)c1cc(Cl)ccc1O [Seclidemstat, seclidemstat, reference compound] | – | – | – | – | IC50 [7]: 0.98 µM; Inhibitory activity against EGFR triple mutant (in words) [8]: does not exhibit inhibitory activity; Inhibitory activity against EGFR double mutant (in words) [16]: does not exhibit inhibitory activity; pIC50 [1]: 6.64; Inhibition of LSD1 enzymatic activity ([1]; at 10 μM): complete inhibition
